Measured values as given in US9403806B1, “Cognition enhancing compounds and compositions, methods of making, and methods of treating” (NeuroSolis, Inc., priority 2010, dated 2016).
Where two headings read alike, the source gives them in different places.

Legend:
[1] = target: T1, human muscarinic M1 receptors (Homo sapiens, UniProt P11229); type: cell-based; conditions: for huM1/A9L Smax: percentage of maximal stimulation by carbachol; for huM1/A9L Potency relative to carbachol: relative to the potency of carbachol at its EC50
T1 construct: host or cells: A9L cells
T1 sequence (P11229 1-460): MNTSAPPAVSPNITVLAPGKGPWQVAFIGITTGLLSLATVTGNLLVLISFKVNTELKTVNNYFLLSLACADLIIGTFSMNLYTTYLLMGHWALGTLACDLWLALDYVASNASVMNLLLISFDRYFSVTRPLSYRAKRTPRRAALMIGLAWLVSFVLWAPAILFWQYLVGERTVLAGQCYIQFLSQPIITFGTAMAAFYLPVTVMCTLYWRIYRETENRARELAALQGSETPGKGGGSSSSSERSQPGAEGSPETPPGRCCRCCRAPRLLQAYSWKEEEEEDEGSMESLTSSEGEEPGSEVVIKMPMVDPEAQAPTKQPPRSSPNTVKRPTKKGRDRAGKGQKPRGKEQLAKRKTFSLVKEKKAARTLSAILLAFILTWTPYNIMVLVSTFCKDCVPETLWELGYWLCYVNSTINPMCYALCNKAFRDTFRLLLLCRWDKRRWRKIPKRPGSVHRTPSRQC
Procedure: (§1) Muscarinic M1 and M3 agonist activity was evaluated by measuring the stimulation of inositol phosphate (IP) production in the presence of lithium chloride from A9L cells transfected with expression plasmids containing human muscarinic M1 and M3 receptors, respectively. The cell lines were a gift from Professor William Messer, and the methods were as described in Tejada et al. (J. Med. Chem. 2006; 49: 7518-31) except that the assay was scaled down to run in 384-well plates and the concentration of inositol-1-phosphate in the lysates was determined using the non-isotopic IP-One Terbium TR-FRET assay kit (Cisbio Bioassays, cat. #62IPAPEJ) according to the manufacturer's instructions.
(§2) Cells were grown to 90% confluence in 384-well high-base, small-volume plates (Greiner Bio-One), compounds were added at suitable concentrations in growth medium containing 10 mM LiCl, buffered with an extra 10 mM HEPES (pH=7.4), and incubated for 60 minutes at 37° C. Cells were lysed and assayed for IP following the manufacturer's instructions.
(§3) The value for a full agonist is 100%, while partial agonists give values below 100%.

[2] = target: T2, human muscarinic M3 receptors (Homo sapiens, UniProt P20309); type: cell-based; conditions: for huM3/A9L Smax: percentage of maximal stimulation by carbachol; for huM3/A9L Potency relative to carbachol: relative to the potency of carbachol at its EC50
T2 construct: host or cells: A9L cells
T2 sequence (P20309 whole entry): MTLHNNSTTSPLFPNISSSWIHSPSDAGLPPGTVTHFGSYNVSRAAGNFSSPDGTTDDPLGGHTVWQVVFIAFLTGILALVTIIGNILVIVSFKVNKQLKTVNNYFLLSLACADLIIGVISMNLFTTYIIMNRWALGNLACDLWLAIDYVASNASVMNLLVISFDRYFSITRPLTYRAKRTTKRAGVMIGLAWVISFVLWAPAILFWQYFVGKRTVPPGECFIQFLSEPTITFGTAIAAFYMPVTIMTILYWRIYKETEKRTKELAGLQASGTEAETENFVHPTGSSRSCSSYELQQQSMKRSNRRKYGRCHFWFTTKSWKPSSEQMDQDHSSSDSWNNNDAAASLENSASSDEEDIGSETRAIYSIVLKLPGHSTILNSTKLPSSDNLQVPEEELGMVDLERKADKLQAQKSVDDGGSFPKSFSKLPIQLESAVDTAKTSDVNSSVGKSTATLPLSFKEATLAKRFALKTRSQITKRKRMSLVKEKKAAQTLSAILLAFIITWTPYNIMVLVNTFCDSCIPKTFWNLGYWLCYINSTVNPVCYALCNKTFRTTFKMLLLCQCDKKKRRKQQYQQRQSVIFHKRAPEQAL
Procedure: as §1, §2, §3

[3] = tested on: muscarinic M1 receptors in the hippocampus; test: In vivo inositol phosphate increase in hippocampus, Example 44; set-up: species or system Long Evans Hooded rats; conditions: rat, 3 mg/kg sc
Procedure: (§4) In lithium chloride-treated laboratory rodents, engagement of muscarinic M1 receptors in the hippocampus may usefully be evaluated in vivo by measuring the increase in the tissue of inositol phosphate (Bymaster F P et al Brain Res 795 (1998) 179-190). This may also be extended to measure engagement of muscaric M3 receptors in the salivary glands.
(§5) Experimental compounds were administered subcutaneously at 3 mg/kg using standard techniques to Long Evans Hooded rats weighing 225 to 350 g, and which had been pretreated with a subcutaneous injection of lithium chloride at a suitable dose between 3 and 5 mmole/kg. At suitable times the animals were briefly anesthetized using 5% isoflurane and euthanized by decapitation. The brains and submaxillary salivary glands were rapidly dissected out, and the hippocampuses were dissected from the brains. The dissected tissues were homogenized in a suitable volume of ice-cold phosphate-buffered saline containing 10 mM lithium chloride (pH=7.4) using a tissue homogenizer, and used immediately or frozen in aliquots at −80° C. for future use. The concentration of inositol-1-phosphate was determined in the homogenates using the […] IP-One Terbium TR-FRET assay kit (Cisbio Bioassays, cat. #62IPAPEJ) according to the manufacturer's instructions.

[4] = tested on: muscarinic M3 receptors in the salivary glands; test: In vivo inositol phosphate increase in salivary glands, Example 44; set-up: species or system Long Evans Hooded rats; conditions: rat, 3 mg/kg sc
Procedure: as §4, §5

[5] = tested on: pooled male human liver microsomes; test: Metabolism in human liver microsomes, Example 45; type: in vitro ADME
Procedure: Aliquots were removed every 2 hours, and 1% formic acid was added to halt the reaction. Samples were centrifuged, filtered through 0.2 micron spinfilter, and the amount of each compound in the supernatants was quantitated using LC/MS/MS as follows. The ultra-filtrates were subjected to reverse-phase liquid chromatography using a 150×2.1 mm Agilent C8-reverse phase column on a Shimadzu Prominence LC, eluting the compound with a gradient of 2%-50% acetonitrile+0.1% formic acid over 5 minutes. The concentration of the compound in the column effluent was measured using an Applied Biosystems API-3200 triple quadrupole mass spectrometer equipped with a Turbo V source (electrospray sample injection) system. The counts of the characteristic parent ions of the protonated compound and product ions were converted to concentration by comparison with a standard calibration curve. The parent/daughter ion pairs that were monitored for each compound were: 166.0/82.0 (105), 166.0/82.0 (106b), 166.0/82.0 (106a), 169.0/83.0 (136), 168.2/83.0 (121), 168.1/83.0 (122a), 168.1/83.0 (122b), 170.2/83.0 (134), 168.2/84.1 (135), 168.1/84.1 (137) and 169.2/82.1 (138).

in vitro = in vitro ADME; conditions: pH 7.4, 24 hours, room temperature; for Papp at 24 h, 400 µM: PAMPA, pH 7.4, 400 μM, read-out: PAMPA Permeability Coefficient (×10^6)
Procedure: PAMPA is a useful in vitro model for predicting the passive diffusion of drugs across the blood-brain barrier (Li, D et al Eur jour of Med Chem 38 (2003) 223-232).
Compounds were diluted in a 100 mM phosphate buffer (pH 7.4) to a concentration of 400 μM and the stock solutions were placed into a 96-well filter plate (Millipore, #MAIPN4510) pre-wetted with 20 mg/mL porcine brain polar lipid extract in 100% dodecane (Avanti, #131022) and placed into a 96-well acceptor plate (Millipore, #MSSACCEPTOR) whose wells were filled with the same phosphate buffer as in the filter plate. This assembly was incubated at room temperature for 24 hours. The experiment was halted by separating the filter plate from the acceptor plate. Aliquots were removed from the filter plate wells, acceptor plate wells, and stock solutions, and 1% trifluoroacetic acid was added to each. All solutions were measured by LC/UV, and passive diffusion rates were calculated using the peak area values (Avdeef, Alex. 2003. Page 147 in Absorption and Drug Development. Hoboken, N.J.: John Wiley & Sons).

[6] = Blood and brain concentrations (rats), tail vein injection; type: in vivo, Long-Evans Hooded rats; conditions: rat; for Kp at 1 h: brain and plasma, intravenous, Table 114, read-out: Brain/Plasma Ratio
Procedure: Long-Evans Hooded rats (Charles River: male, 230-300 g) were dosed with solutions of test compounds in PBS by tail vein injection. The dose for all compounds was 3 mg/kg. At one hour, the animals were anesthetized with isoflurane, and then euthanized by decapitation. Trunk blood was collected into a 1.5 mL microcentrifuge tube containing 15 U Heparin, and the plasma recovered after centrifugation. Brains were dissected, weighed, immediately chilled to 4° C., and homogenized using a PowerGen 125 homogenizer in five volumes of ice-cold 2% formic acid. Proteins were precipitated from plasma and brain homogenate with nine and five volumes respectively of ice-cold 2% formic acid and clarified by centrifugation. The supernatant was ultra-filtered by centrifugation through a 3K MWCO spin column (Pall Life Sciences), following the manufacturer's instructions. The concentration of compound in the ultra-filtrate was subjected to reverse-phase liquid chromatography using a 150×2.1 mm Agent C8 reverse-phase column on a Shimadzu Prominence LC, eluting the compounds with a gradient of 2% to 50% of acetonitrile+0.1% formic acid for all compounds. The concentration of the compound in the column effluent was measured using an Applied Biosystems API-3200 triple quadrupole mass spectrometer equipped with an electrospray sample injection system. The counts of the characteristic parent and product ions of each test compound were converted to concentration units by comparison with a standard curve.

[7] = as above; type: in vivo, Long-Evans Hooded rats; conditions: rat, 3 mg/kg tail vein injection; for half-life: male, Long-Evans Hooded, plasma, iv, 3 mg/kg, read-out: Plasma Terminal Half-life (converted)
[8] = male, Long-Evans Hooded, 3 mg/kg
[9] = male, Long-Evans Hooded, in vivo, 3 mg/kg, 3 mg/kg tail vein injection, read-out: Brain Concentration at 1 hr
[10] = male, Long-Evans Hooded, in vivo, 3 mg/kg, 3 mg/kg tail vein injection, read-out: Plasma Concentration at 1 hr

| SMILES | huM1/A9L Smax [1] [%] | huM1/A9L Potency relative to carbachol [1] | huM3/A9L Smax [2] [%] | huM3/A9L Potency relative to carbachol [2] | Increase in Inositol Phosphate in Hippocampus/Control ([3]; 5 mmole/kg LiCl) [%] | Increase in Inositol Phosphate in Salivary Gland/Control ([4]; 5 mmole/kg LiCl) [%] | Loss at 6 hrs (%) [5] [%] | Papp at 24 h, 400 µM (in vitro) [×10⁻⁶ cm/s] | Kp at 1 h [6, 8] | concentration at 1 h [6, 9] [µM] | concentration at 1 h [6, 10] [µM] | half-life [7] [h] | further results |
| --- | --- | --- | --- | --- | --- | --- | --- | --- | --- | --- | --- | --- | --- |
| Cc1noc([C@@]23CNC[C@@H]2C3)n1 [Compound 106a, 5-((1R,5R)-3-Azabicyclo[3.1.0]hexan-1-yl)-3-methyl-1,2,4-oxadiazole] | 80 | 1.72 | 45 | 0.46 | 376 | 191 | 50 | 4.25 | 0.39 | 3.5 | 5.6 | 0.7 |  |
| Cc1noc([C@]23CNC[C@H]2C3)n1 [Compound 106b, 5-((1S,5S)-3-Azabicyclo[3.1.0]hexan-1-yl)-3-methyl-1,2,4-oxadiazole] | 40 | 0.51 | 42 | 0.27 | 141 | 104 | 29 | 4.37 | 0.6 | 5.5 | 9.5 | 1.1 |  |
| [2H]C([2H])([2H])c1noc(C23CNC([2H])([2H])C2C3)n1 (stereo not drawn) [Compound 135, 5-(2,2-d2-3-azabicyclo[3.1.0]hexan-1-yl)-3-methyl-1,2,4-oxadiazole] | 70 | 1.39 | 46 | 0.49 |  |  | 26 |  |  |  |  |  | Increase in Inositol Phosphate in Hippocampus/Control ([3]; 5 mmole/kg LiCl, 3 mg/kg): 614%; Increase in Inositol Phosphate in Salivary Gland/Control ([4]; 5 mmole/kg LiCl, 3 mg/kg): 194%; PAMPA Permeability Coefficient (×10^6) (in vitro; 400 μM): 5.40 ×10^6; Brain/plasma ratio ([6]; Table 114, 3 mg/kg): 0.61; Plasma Concentration at 1 hr ([6]; 3 mg/kg tail vein injection): 13.8 µM; concentration at 1 h ([6]; 3 mg/kg tail vein injection, read-out: Brain Concentration at 1 hr): 7.7 µM; Plasma Terminal Half-life [7]: 1.0 h |
| [2H]C1([2H])NC([2H])([2H])C2(c3nc(C)no3)CC12 (stereo not drawn) [Compound 134, 5-(2,2,4,4-d4-3-Azabicyclo[3.1.0]hexan-1-yl)-3-methyl-1,2,4-oxadiazole] | 61 | 1.17 | 41 | 0.35 | 574 | 214 | 10 | 3.46 | 0.65 | 8.4 | 13.5 | 1.4 |  |
| [2H]C1([2H])NC[C@@]2(c3nc(C)no3)C[C@@H]12 [Compound 122a, 5-((1R,5R)-4,4-d2-3-azabicyclo[3.1.0]hexan-1-yl)-3-methyl-1,2,4-oxadiazole] | 77 | 1.09 | 44 | 0.38 |  |  | 20 | 3.93 | 0.59 | 5 | 12.2 | 0.97 | Increase in Inositol Phosphate in Hippocampus/Control ([3]; 3 mmole/kg LiCl): 487%; Increase in Inositol Phosphate in Salivary Gland/Control ([4]; 3 mmole/kg LiCl): 182% |
| Cc1noc(C23CNCC2C3)n1 (racemic) [Compound 105, 5-(3-Azabicyclo[3.1.0]hexan-1-yl)-3-methyl-1,2,4-oxadiazole] | 58 | 0.78 | 33 | 0.17 | 563 | 219 | 27 | 4.49 | 0.38 | 4.4 | 15 | 1.1 |  |
| [2H]C1([2H])NC[C@]2(c3nc(C)no3)C[C@H]12 [Compound 122b, 5-((1S,5S)-4,4-d2-3-azabicyclo[3.1.0]hexan-1-yl)-3-methyl-1,2,4-oxadiazole] | 47 | 0.54 | 28 | 0.50 |  |  | 13 | 3.7 | 0.58 | 5.1 | 8.8 | 1.3 | Increase in Inositol Phosphate in Hippocampus/Control ([3]; 3 mmole/kg LiCl): 150%; Increase in Inositol Phosphate in Salivary Gland/Control ([4]; 3 mmole/kg LiCl): 163% |
